Results published in US20020006920A1, “Arylsulfonylamino hydroxamic acid derivatives” (priority 1999, published 2002).

Row | SMILES | melting point
1 | O=C(NO)C1(NS(=O)(=O)c2ccc(Oc3ccc(F)cc3)cc2)CCCCC1 [Example 4, 1-[4-(4-Fluorophenoxy)benzenesulfonylamino]cyclohexane-1-carboxylic acid hydroxyamide] | 174 °C
2 | CC(C)CCOc1ccc(S(=O)(=O)NC(C)(C)C(=O)NO)cc1 [Example 11, N-Hydroxy-2-methyl-2-[4-(3-methylbutoxy)benzenesulfonylamino]-propionamide] | 126.5 to 128 °C
3 | O=C(NO)C1(NS(=O)(=O)c2ccc(Oc3ccc(F)cc3)cc2)CC1 [Example 5, 1-[4-(4-Fluorophenoxy)benzenesulfonylamino]cyclopropane-1-carboxylic acid hydroxyamide] | 184 °C

Now from value to compound:

Row | melting point | SMILES
4 | 122 to 125 °C | COc1ccc(S(=O)(=O)NC(C)(C)C(=O)NO)cc1 [Example 9, N-Hydroxy-2-(4-methoxybenzenesulfonylamino)-2-methylpropionamide]
5 | 165 to 166 °C | CC(C)(NS(=O)(=O)c1ccc(-c2ccccn2)s1)C(=O)NO [Example 13, N-Hydroxy-2-methyl-2-(5-pyridin-2-ylthiophene-2-sulfonylamino)propionamide]
6 | 126 to 127 °C | CC(C)(NS(=O)(=O)c1ccc(OCCC2CCCC2)cc1)C(=O)NO [Example 12, 2-[4-(2-Cyclopentylethoxy)benzenesulfonylamino]-N-hydroxy-2-methyl-propionamide]
